Experimental findings from patent US20230365592A1 (Agios Pharmaceuticals, Inc., priority 2022, published 2023) are described below.

In the assay the target is T1, human PAH with the R408W mutation (Homo sapiens, UniProt P00439, R408W).
T1 construct: expressed in transfected cells
T1 sequence (P00439 1-452 R408W): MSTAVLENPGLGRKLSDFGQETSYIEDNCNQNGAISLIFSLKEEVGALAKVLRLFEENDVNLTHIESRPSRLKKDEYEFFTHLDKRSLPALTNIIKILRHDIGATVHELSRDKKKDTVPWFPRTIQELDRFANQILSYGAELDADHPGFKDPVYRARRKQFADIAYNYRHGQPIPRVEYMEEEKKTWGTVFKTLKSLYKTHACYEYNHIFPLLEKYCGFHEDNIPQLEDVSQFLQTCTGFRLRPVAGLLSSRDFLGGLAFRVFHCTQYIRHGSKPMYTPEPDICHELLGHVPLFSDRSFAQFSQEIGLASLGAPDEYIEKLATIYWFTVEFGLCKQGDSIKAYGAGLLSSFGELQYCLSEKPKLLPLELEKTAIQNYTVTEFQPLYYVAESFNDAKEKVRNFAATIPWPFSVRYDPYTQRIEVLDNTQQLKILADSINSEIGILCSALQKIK
In words: Cell Based Phenylalanine Flux Assay.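 Also: after compound treatment, cells received sepiapterin plus isotope-labelled Phenylalanine for 4 hours, then labelled Tyrosine in the medium was quantified, 10-point 2-fold dilution series run in duplicate.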 The conditions noted are these: A375 cells expressing human R408W PAH; 24 hrs compound incubation; 13C-Tyrosine by LC-MS; average where tested multiple times; read-out: AC50.

A word on the AC50: it is the midpoint of the concentration-response curve, whichever way the signal moves. Consider `O=C(c1ocnc1C(F)F)N1CCc2[nH]cnc2[C@H]1c1cc2cccc(F)n2n1` [Example 1202, (S)-(4-(difluoromethyl)oxazol-5-yl)(4-(7-fluoropyrazolo[1,5-a]pyridin-2-yl)-6,7-dihydro-1H-imidazo[4,5-c]pyridin-5(4H)-yl)methanone], for which the AC50 is below 0.5 µM.
Regarding `O=C(c1ocnc1C(F)F)N1CCc2[nH]cnc2[C@@H]1c1cc2cccc(F)n2n1` [Example 1203, (R)-(4-(difluoromethyl)oxazol-5-yl)(4-(7-fluoropyrazolo[1,5-a]pyridin-2-yl)-6,7-dihydro-1H-imidazo[4,5-c]pyridin-5(4H)-yl)methanone], the AC50 lay in the range of 1 to 5 µM.
Then `Cc1c(-c2nnc(C(=O)N3CCc4[nH]cnc4[C@H]3c3cc4c(C(F)(F)F)cccn4n3)o2)cnn1C` [Example 1204, (S)-(5-(1,5-dimethyl-1H-pyrazol-4-yl)-1,3,4-oxadiazol-2-yl)(4-(4-(trifluoromethyl)pyrazolo[1,5-a]pyridin-2-yl)-6,7-dihydro-1H-imidazo[4,5-c]pyridin-5(4H)-yl)methanone], with below 0.5 µM.
With `Cc1c(-c2nnc(C(=O)N3CCc4[nH]cnc4[C@@H]3c3cc4c(C(F)(F)F)cccn4n3)o2)cnn1C` [Example 1205, (R)-(5-(1,5-dimethyl-1H-pyrazol-4-yl)-1,3,4-oxadiazol-2-yl)(4-(4-(trifluoromethyl)pyrazolo[1,5-a]pyridin-2-yl)-6,7-dihydro-1H-imidazo[4,5-c]pyridin-5(4H)-yl)methanone], the AC50 is above 5 µM.
As to `COc1cccn2nc([C@@H]3c4nc[nH]c4CCN3C(=O)c3nnc(-c4cnn(C)c4C)o3)cc12` [Example 1206, (S)-(5-(1,5-dimethyl-1H-pyrazol-4-yl)-1,3,4-oxadiazol-2-yl)(4-(4-methoxypyrazolo[1,5-a]pyridin-2-yl)-6,7-dihydro-1H-imidazo[4,5-c]pyridin-5(4H)-yl)methanone], the AC50 is 0.5 to 1 µM.
Under `Cc1c(-c2nnc(C(=O)N3CCc4[nH]cnc4[C@H]3c3cc4cccc(Cl)n4n3)o2)cnn1C` [Example 1208, (S)-(4-(7-chloropyrazolo[1,5-a]pyridin-2-yl)-6,7-dihydro-1H-imidazo[4,5-c]pyridin-5(4H)-yl)(5-(1,5-dimethyl-1H-pyrazol-4-yl)-1,3,4-oxadiazol-2-yl)methanone] stands below 0.5 µM; under `Cc1c(-c2nnc(C(=O)N3CCc4[nH]cnc4[C@@H]3c3cc4cccc(Cl)n4n3)o2)cnn1C` [Example 1209, (R)-(4-(7-chloropyrazolo[1,5-a]pyridin-2-yl)-6,7-dihydro-1H-imidazo[4,5-c]pyridin-5(4H)-yl)(5-(1,5-dimethyl-1H-pyrazol-4-yl)-1,3,4-oxadiazol-2-yl)methanone], above 5 µM; under `Cc1nc(C(C)(C)O)oc1C(=O)N1CCc2[nH]cnc2[C@H]1c1cc2cccc(Cl)n2n1` [Example 1210, (S)-(4-(7-chloropyrazolo[1,5-a]pyridin-2-yl)-6,7-dihydro-1H-imidazo[4,5-c]pyridin-5(4H)-yl)(2-(2-hydroxypropan-2-yl)-4-methyloxazol-5-yl)methanone], 0.5 to 1 µM.
Then `Cc1nc([C@H](C)O)oc1C(=O)N1CCc2[nH]cnc2[C@H]1c1cc2cccc(Cl)n2n1` [Example 1212, ((S)-4-(7-chloropyrazolo[1,5-a]pyridin-2-yl)-6,7-dihydro-1H-imidazo[4,5-c]pyridin-5(4H)-yl)(2-((S)-1-hydroxyethyl)-4-methyloxazol-5-yl)methanone], with 0.5 to 1 µM; and `Cc1c(-c2nnc(C(=O)N3CCc4[nH]cnc4[C@@H]3c3cc4c(Cl)cccn4n3)o2)cnn1C` [Example 1215, (R)-(4-(4-chloropyrazolo[1,5-a]pyridin-2-yl)-6,7-dihydro-1H-imidazo[4,5-c]pyridin-5(4H)-yl)(5-(1,5-dimethyl-1H-pyrazol-4-yl)-1,3,4-oxadiazol-2-yl)methanone], with above 5 µM; and `Cc1cccn2nc([C@H]3c4nc[nH]c4CCN3C(=O)c3oc(C(C)(C)F)nc3C(F)F)cc12` [Example 1217, (R)-(4-(difluoromethyl)-2-(2-fluoropropan-2-yl)oxazol-5-yl)(4-(4-methylpyrazolo[1,5-a]pyridin-2-yl)-6,7-dihydro-1H-imidazo[4,5-c]pyridin-5(4H)-yl)methanone], with below 0.5 µM.
Then `CC(C)(F)c1nc(C(F)F)c(C(=O)N2CCc3[nH]cnc3[C@@H]2c2cc3c(C(F)(F)F)cccn3n2)o1` [Example 1219, (R)-(4-(difluoromethyl)-2-(2-fluoropropan-2-yl)oxazol-5-yl)(4-(4-(trifluoromethyl)pyrazolo[1,5-a]pyridin-2-yl)-6,7-dihydro-1H-imidazo[4,5-c]pyridin-5(4H)-yl)methanone], with 0.5 to 1 µM; and `Cc1cccn2nc([C@H]3c4nc[nH]c4CCN3C(=O)c3oc(C4(O)CC4)nc3C(F)F)cc12` [Example 1221, (R)-(4-(difluoromethyl)-2-(1-hydroxycyclopropyl)oxazol-5-yl)(4-(4-methylpyrazolo[1,5-a]pyridin-2-yl)-6,7-dihydro-1H-imidazo[4,5-c]pyridin-5(4H)-yl)methanone], with 1 to 5 µM; and `O=C(c1oc(C2(O)CC2)nc1C(F)F)N1CCc2[nH]cnc2[C@H]1c1cc2c(C(F)(F)F)cccn2n1` [Example 1222, (S)-(4-(difluoromethyl)-2-(1-hydroxycyclopropyl)oxazol-5-yl)(4-(4-(trifluoromethyl)pyrazolo[1,5-a]pyridin-2-yl)-6,7-dihydro-1H-imidazo[4,5-c]pyridin-5(4H)-yl)methanone], with below 0.5 µM.
As to `O=C(c1oc(C2(O)CC2)nc1C(F)F)N1CCc2[nH]cnc2[C@@H]1c1cc2c(C(F)(F)F)cccn2n1` [Example 1223, (R)-(4-(difluoromethyl)-2-(1-hydroxycyclopropyl)oxazol-5-yl)(4-(4-(trifluoromethyl)pyrazolo[1,5-a]pyridin-2-yl)-6,7-dihydro-1H-imidazo[4,5-c]pyridin-5(4H)-yl)methanone], the half-maximal activity concentration (AC50) is 1 to 5 µM.
Under `Cn1cc(-c2nnc(C(=O)N3CCc4[nH]cnc4[C@@H]3c3cc4cccc(F)n4n3)o2)cn1` [Example 1225, (R)-(4-(7-fluoropyrazolo[1,5-a]pyridin-2-yl)-6,7-dihydro-1H-imidazo[4,5-c]pyridin-5(4H)-yl)(5-(1-methyl-1H-pyrazol-4-yl)-1,3,4-oxadiazol-2-yl)methanone] stands 1 to 5 µM.
Then `CC(C)(F)c1nc(C(F)F)c(C(=O)N2CCc3[nH]cnc3[C@H]2c2cc3c(F)cccn3n2)o1` [Example 1226, (S)-(4-(difluoromethyl)-2-(2-fluoropropan-2-yl)oxazol-5-yl)(4-(4-fluoropyrazolo[1,5-a]pyridin-2-yl)-6,7-dihydro-1H-imidazo[4,5-c]pyridin-5(4H)-yl)methanone], with below 0.5 µM; and `CC(C)(F)c1nc(C(F)F)c(C(=O)N2CCc3[nH]cnc3[C@@H]2c2cc3c(F)cccn3n2)o1` [Example 1227, (R)-(4-(difluoromethyl)-2-(2-fluoropropan-2-yl)oxazol-5-yl)(4-(4-fluoropyrazolo[1,5-a]pyridin-2-yl)-6,7-dihydro-1H-imidazo[4,5-c]pyridin-5(4H)-yl)methanone], with 0.5 to 1 µM.
